biological target: T1, chimeric human H3 receptor (Homo sapiens, UniProt Q9Y5N1); experiment: Chimeric human H3 receptor screening GTP binding assay (inhibition of histamine-stimulated GTP-gamma35S binding, Example 8); type: biochemical; conditions: 1 h; assay of Example 8; symbol "!" in column headed Ki; read-out: percent inhibition of agonist-induced GTP-gammaS binding to H3
T1 construct: rat Galpha-i2 (Gnai2, rat); made in house; host or cells: Sf9 insect cells (baculovirus); P2 membranes
Procedure, shortened: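 Sf9 membranes co-expressing chimeric human H3 receptor and heterotrimeric G-protein (35 μg protein) incubated 60 min at room temperature with 4 μM compound, 1 μM histamine and 125 pM GTP-gamma35S in pH 7.4 buffer with 10 μM GDP. Filter-bound radioactivity, nonspecific (10 μM GTP-gammaS) subtracted, reported as % inhibition of histamine signal.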

T1 sequence (Q9Y5N1 with tags, fused parts or gaps): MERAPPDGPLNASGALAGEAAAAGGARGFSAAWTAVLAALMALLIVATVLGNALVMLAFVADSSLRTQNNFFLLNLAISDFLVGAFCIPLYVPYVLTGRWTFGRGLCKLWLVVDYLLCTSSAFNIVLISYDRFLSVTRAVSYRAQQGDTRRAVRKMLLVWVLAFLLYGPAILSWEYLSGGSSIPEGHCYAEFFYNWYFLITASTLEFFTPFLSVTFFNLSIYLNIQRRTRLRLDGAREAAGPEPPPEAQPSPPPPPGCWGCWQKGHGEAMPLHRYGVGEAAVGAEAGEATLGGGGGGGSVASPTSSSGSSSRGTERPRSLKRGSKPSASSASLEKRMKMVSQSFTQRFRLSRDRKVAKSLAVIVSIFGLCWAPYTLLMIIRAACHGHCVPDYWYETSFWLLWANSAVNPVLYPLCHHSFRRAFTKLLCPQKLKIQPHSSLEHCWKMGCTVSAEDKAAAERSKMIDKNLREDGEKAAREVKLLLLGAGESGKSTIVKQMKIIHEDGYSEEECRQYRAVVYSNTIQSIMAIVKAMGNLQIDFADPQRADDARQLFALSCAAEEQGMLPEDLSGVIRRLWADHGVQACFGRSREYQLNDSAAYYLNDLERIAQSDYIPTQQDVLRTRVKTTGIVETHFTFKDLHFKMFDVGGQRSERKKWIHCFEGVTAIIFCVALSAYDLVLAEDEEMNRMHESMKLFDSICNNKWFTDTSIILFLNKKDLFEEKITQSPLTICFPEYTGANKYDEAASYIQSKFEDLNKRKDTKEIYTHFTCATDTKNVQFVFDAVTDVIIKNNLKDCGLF

Inhibition at 4 µM, ≥ 90%:
Cc1c(F)cccc1CN1CCc2cnc(N3CCN(C4CCC4)CC3)nc2CC1 [Compound 264, 2-(4-cyclobutylpiperazin-1-yl)-7-(3-fluoro-2-methylbenzyl)-6,7,8,9-tetrahydro-5H-pyrimido[4,5-d]azepine]
Clc1ccccc1CN1CCc2cnc(N3CCN(C4CCC4)CC3)nc2CC1 [Compound 265, 7-(2-chlorobenzyl)-2-(4-cyclobutylpiperazin-1-yl)-6,7,8,9-tetrahydro-5H-pyrimido[4,5-d]azepine]
Clc1ccc(CN2CCc3cnc(N4CCN(C5CCC5)CC4)nc3CC2)c(Cl)c1 [Compound 266, 2-(4-cyclobutylpiperazin-1-yl)-7-(2,4-dichlorobenzyl)-6,7,8,9-tetrahydro-5H-pyrimido[4,5-d]azepine]
c1cc(N2CCCC2)ccc1CN1CCc2cnc(N3CCN(C4CCC4)CC3)nc2CC1 [Compound 267, 2-(4-cyclobutylpiperazin-1-yl)-7-(4-pyrrolidin-1-ylbenzyl)-6,7,8,9-tetrahydro-5H-pyrimido[4,5-d]azepine]
N#Cc1ccc(C(=O)N2CCc3cnc(N4CCN(C5CCC5)CC4)nc3CC2)cc1 [Compound 268, 4-{[2-(4-cyclobutylpiperazin-1-yl)-5,6,8,9-tetrahydro-7H-pyrimido[4,5-d]azepin-7-yl]carbonyl}benzonitrile]
O=C(c1ccc(C(F)(F)F)cc1)N1CCc2cnc(N3CCN(C4CCC4)CC3)nc2CC1 [Compound 269, 2-(4-cyclobutylpiperazin-1-yl)-7-[4-(trifluoromethyl)benzoyl]-6,7,8,9-tetrahydro-5H-pyrimido[4,5-d]azepine]
COc1nc(N2CCN(C3CCC3)CC2)nc2c1CCN(C(=O)c1ccccc1)CC2 [Compound 270, 7-benzoyl-2-(4-cyclobutylpiperazin-1-yl)-4-methoxy-6,7,8,9-tetrahydro-5H-pyrimido[4,5-d]azepine]
c1nc2c(c(N3CCN(C4CCC4)CC3)n1)CCN(CC1CCOCC1)CC2 [Compound 271, 4-(4-cyclobutylpiperazin-1-yl)-7-(tetrahydro-2H-pyran-4-ylmethyl)-6,7,8,9-tetrahydro-5H-pyrimido[4,5-d]azepine]
c1nc(N2CCN(C3CCC3)CC2)nc2c1CCN(CC1CCOCC1)CC2 [Compound 272, 2-(4-cyclobutylpiperazin-1-yl)-7-(tetrahydro-2H-pyran-4-ylmethyl)-6,7,8,9-tetrahydro-5H-pyrimido[4,5-d]azepine]
COc1cccc(CC(=O)N2CCc3cnc(N4CCN(C5CCC5)CC4)nc3CC2)c1 [Compound 273, 2-(4-cyclobutylpiperazin-1-yl)-7-[(3-methoxyphenyl)acetyl]-6,7,8,9-tetrahydro-5H-pyrimido[4,5-d]azepine]
COc1ccc(CC(=O)N2CCc3cnc(N4CCN(C5CCC5)CC4)nc3CC2)cc1 [Compound 274, 2-(4-cyclobutylpiperazin-1-yl)-7-[(4-methoxyphenyl)acetyl]-6,7,8,9-tetrahydro-5H-pyrimido[4,5-d]azepine]
CCOc1ccc(CC(=O)N2CCc3cnc(N4CCN(C5CCC5)CC4)nc3CC2)cc1OC [Compound 275, 2-(4-cyclobutylpiperazin-1-yl)-7-[(4-ethoxy-3-methoxyphenyl)acetyl]-6,7,8,9-tetrahydro-5H-pyrimido[4,5-d]azepine]
COc1cc(CC(=O)N2CCc3cnc(N4CCN(C5CCC5)CC4)nc3CC2)cc(OC)c1OC [Compound 276, 2-(4-cyclobutylpiperazin-1-yl)-7-[(3,4,5-trimethoxyphenyl)acetyl]-6,7,8,9-tetrahydro-5H-pyrimido[4,5-d]azepine]
O=C(Cc1ccc2c(c1)OCO2)N1CCc2cnc(N3CCN(C4CCC4)CC3)nc2CC1 [Compound 277, 7-(1,3-benzodioxol-5-ylacetyl)-2-(4-cyclobutylpiperazin-1-yl)-6,7,8,9-tetrahydro-5H-pyrimido[4,5-d]azepine]
O=C(Cc1ccc(OC(F)(F)F)cc1)N1CCc2cnc(N3CCN(C4CCC4)CC3)nc2CC1 [Compound 278, 2-(4-cyclobutylpiperazin-1-yl)-7-{[4-(trifluoromethoxy)phenyl]acetyl}-6,7,8,9-tetrahydro-5H-pyrimido[4,5-d]azepine]
O=C(Cc1cccc(OC(F)(F)F)c1)N1CCc2cnc(N3CCN(C4CCC4)CC3)nc2CC1 [Compound 279, 2-(4-cyclobutylpiperazin-1-yl)-7-{[3-(trifluoromethoxy)phenyl]acetyl}-6,7,8,9-tetrahydro-5H-pyrimido[4,5-d]azepine]
COc1cc(CC(=O)N2CCc3cnc(N4CCN(C5CCC5)CC4)nc3CC2)cc(OC)c1 [Compound 280, 2-(4-cyclobutylpiperazin-1-yl)-7-[(3,5-dimethoxyphenyl)acetyl]-6,7,8,9-tetrahydro-5H-pyrimido[4,5-d]azepine]
COc1ccc(CC(=O)N2CCc3cnc(N4CCN(C5CCC5)CC4)nc3CC2)cc1OC [Compound 281, 2-(4-cyclobutylpiperazin-1-yl)-7-[(3,4-dimethoxyphenyl)acetyl]-6,7,8,9-tetrahydro-5H-pyrimido[4,5-d]azepine]
O=C(Cc1cccc(Oc2ccccc2)c1)N1CCc2cnc(N3CCN(C4CCC4)CC3)nc2CC1 [Compound 282, 2-(4-cyclobutylpiperazin-1-yl)-7-[(3-phenoxyphenyl)acetyl]-6,7,8,9-tetrahydro-5H-pyrimido[4,5-d]azepine]
O=C(Cc1ccc(Oc2ccccc2)cc1)N1CCc2cnc(N3CCN(C4CCC4)CC3)nc2CC1 [Compound 283, 2-(4-cyclobutylpiperazin-1-yl)-7-[(4-phenoxyphenyl)acetyl]-6,7,8,9-tetrahydro-5H-pyrimido[4,5-d]azepine]
O=C(Cc1cccc(Cl)c1)N1CCc2cnc(N3CCN(C4CCC4)CC3)nc2CC1 [Compound 284, 7-[(3-chlorophenyl)acetyl]-2-(4-cyclobutylpiperazin-1-yl)-6,7,8,9-tetrahydro-5H-pyrimido[4,5-d]azepine]
O=C(Cc1ccc(Cl)cc1)N1CCc2cnc(N3CCN(C4CCC4)CC3)nc2CC1 [Compound 285, 7-[(4-chlorophenyl)acetyl]-2-(4-cyclobutylpiperazin-1-yl)-6,7,8,9-tetrahydro-5H-pyrimido[4,5-d]azepine]
O=C(Cc1ccc(F)cc1F)N1CCc2cnc(N3CCN(C4CCC4)CC3)nc2CC1 [Compound 286, 2-(4-cyclobutylpiperazin-1-yl)-7-[(2,4-difluorophenyl)acetyl]-6,7,8,9-tetrahydro-5H-pyrimido[4,5-d]azepine]
O=C(Cc1ccc(C(F)(F)F)cc1)N1CCc2cnc(N3CCN(C4CCC4)CC3)nc2CC1 [Compound 287, 2-(4-cyclobutylpiperazin-1-yl)-7-{[4-(trifluoromethyl)phenyl]acetyl}-6,7,8,9-tetrahydro-5H-pyrimido[4,5-d]azepine]
O=C(Cc1cccc(C(F)(F)F)c1)N1CCc2cnc(N3CCN(C4CCC4)CC3)nc2CC1 [Compound 288, 2-(4-cyclobutylpiperazin-1-yl)-7-{[3-(trifluoromethyl)phenyl]acetyl}-6,7,8,9-tetrahydro-5H-pyrimido[4,5-d]azepine]
O=C(Cc1cccc(Br)c1)N1CCc2cnc(N3CCN(C4CCC4)CC3)nc2CC1 [Compound 289, 7-[(3-bromophenyl)acetyl]-2-(4-cyclobutylpiperazin-1-yl)-6,7,8,9-tetrahydro-5H-pyrimido[4,5-d]azepine]
O=C(Cc1ccc(Br)cc1)N1CCc2cnc(N3CCN(C4CCC4)CC3)nc2CC1 [Compound 290, 7-[(4-bromophenyl)acetyl]-2-(4-cyclobutylpiperazin-1-yl)-6,7,8,9-tetrahydro-5H-pyrimido[4,5-d]azepine]
O=C(Cc1c(F)cccc1F)N1CCc2cnc(N3CCN(C4CCC4)CC3)nc2CC1 [Compound 291, 2-(4-cyclobutylpiperazin-1-yl)-7-[(2,6-difluorophenyl)acetyl]-6,7,8,9-tetrahydro-5H-pyrimido[4,5-d]azepine]
O=C(Cc1cccc(C(F)(F)F)c1F)N1CCc2cnc(N3CCN(C4CCC4)CC3)nc2CC1 [Compound 292, 2-(4-cyclobutylpiperazin-1-yl)-7-{[2-fluoro-3-(trifluoromethyl)phenyl]acetyl}-6,7,8,9-tetrahydro-5H-pyrimido[4,5-d]azepine]
O=C(Cc1ccc(Cl)c(Cl)c1)N1CCc2cnc(N3CCN(C4CCC4)CC3)nc2CC1 [Compound 293, 2-(4-cyclobutylpiperazin-1-yl)-7-[(3,4-dichlorophenyl)acetyl]-6,7,8,9-tetrahydro-5H-pyrimido[4,5-d]azepine]
O=C(Cc1ccccc1Cl)N1CCc2cnc(N3CCN(C4CCC4)CC3)nc2CC1 [Compound 294, 7-[(2-chlorophenyl)acetyl]-2-(4-cyclobutylpiperazin-1-yl)-6,7,8,9-tetrahydro-5H-pyrimido[4,5-d]azepine]
O=C(Cc1ccccc1C(F)(F)F)N1CCc2cnc(N3CCN(C4CCC4)CC3)nc2CC1 [Compound 295, 2-(4-cyclobutylpiperazin-1-yl)-7-{[2-(trifluoromethyl)phenyl]acetyl}-6,7,8,9-tetrahydro-5H-pyrimido[4,5-d]azepine]

Reference: patent US20080051387A1, “TETRAHYDROPYRIDO[3,4-D]PYRIMIDINES AND RELATED ANALOGUES” (priority 2006, published 2008)
